Assay results from patent US20090143279A1 (priority 2007, published 2009).
Like-named read-outs stand apart in the source and are kept apart here.

Legend:
mtOXPHOS transcripts = format: cell-based, mouse
OXPHOS gene expression = format: cell-based, mouse
[1] = test system: cellular dehydrogenase activity
cytochrome c = format: cell-based, mouse
nuOXPHOS transcripts = format: cell-based, mouse
reactive oxygen species = format: cell-based, mouse
[2] = test system: mitochondrial membrane potential; format: cell-based, mouse
[3] = normalized composite Z-score vs mock-treated (DMSO) wells, Conc 20 μM
[4] = composite Z-score vs DMSO, Conc 20 μM
[5] = 20 μM, composite Z-score vs DMSO
[6] = composite Z-score vs DMSO, Conc 10.24 μM
[7] = composite Z-score vs DMSO wells, Conc 20 μM
[8] = composite Z-score vs mock-treated (DMSO) wells, Conc 20 μM
[9] = 18.76 μM, composite Z-score vs DMSO
[10] = 13.16 μM, composite Z-score vs DMSO

COc1ccc(-c2cc(=O)c3c(O)c(OC)c(O[C@@H]4O[C@H](CO[C@@H]5O[C@@H](C)[C@H](O)[C@@H](O)[C@H]5O)[C@@H](O)[C@H](O)[C@H]4O)cc3o2)cc1 [pectolinarin] showed a mitoOX (mtOXPHOS transcripts; [3]) of −1.349, a Viability (C2C12 myotubes; [3]) of −0.100 and a GE-HTS (OXPHOS gene expression; [3]) of −1.381. The MTT [1, 3] was −0.475, the cyt c (cytochrome c; [3]) was −0.739 and the nucOX (nuOXPHOS transcripts; [3]) was −1.292. The ROS (reactive oxygen species; [3]) was 1.058 and the ΔΨm [2, 3] was −0.280.

CC(=O)C[C@H]1CCCCN1 [pelletierine] showed a mitoOX (mtOXPHOS transcripts; [3]) of −0.077, a Viability (C2C12 myotubes; [3]) of −0.418 and a GE-HTS (OXPHOS gene expression; [3]) of 0.036. It also gave an MTT [1, 3] of −0.341, a cyt c (cytochrome c; [3]) of 0.349 and a nucOX (nuOXPHOS transcripts; [3]) of 0.077. For the same compound, the ROS (reactive oxygen species; [3]) was −0.071 and the ΔΨm [2, 3] was −0.120.

CN1C(C)(C)CCCC1(C)C [pempidine] was tested, and the mitoOX (mtOXPHOS transcripts) was −0.998, the mitoOX (mtOXPHOS transcripts; [4]) was −0.378 and the Viability (C2C12 myotubes) was −1.023. For the same compound, the Viability (C2C12 myotubes; [4]) was −0.822, the GE-HTS (OXPHOS gene expression) was −0.656 and the GE-HTS (OXPHOS gene expression; [4]) was −0.874. It also gave an MTT [1] of −2.128, an MTT [1, 4] of −1.419 and a cyt c (cytochrome c) of 0.163. It also gave a cyt c (cytochrome c; [4]) of 0.146, a nucOX (nuOXPHOS transcripts) of −0.425 and a nucOX (nuOXPHOS transcripts; [4]) of −1.035. It also gave an ROS (reactive oxygen species) of 1.119, an ROS (reactive oxygen species; [4]) of 0.861 and a ΔΨm [2] of −0.967. It also gave a ΔΨm [2, 4] of −0.376.

CC1(C)S[C@@H]2[C@H](NC(=O)COc3ccccc3)C(=O)N2[C@H]1C(=O)O [penicillin V] gave a mitoOX (mtOXPHOS transcripts; [5]) of −0.654, a Viability (C2C12 myotubes; [5]) of 0.062 and a GE-HTS (OXPHOS gene expression; [5]) of −0.849. For the same compound, the MTT [1, 5] was −1.319, the cyt c (cytochrome c; [5]) was 0.258 and the nucOX (nuOXPHOS transcripts; [5]) was −0.844. It also gave an ROS (reactive oxygen species; [5]) of 0.748 and a ΔΨm [2, 5] of −0.564.

With C[N+]1(CCCCC[N+]2(C)CCCC2)CCCC1 [pentolinium] the mitoOX (mtOXPHOS transcripts; [6]) was 0.444, the mitoOX (mtOXPHOS transcripts; [4]) was −1.080 and the Viability (C2C12 myotubes; [6]) was 0.213. For the same compound, the Viability (C2C12 myotubes; [4]) was −0.568, the GE-HTS (OXPHOS gene expression; [6]) was 0.521 and the GE-HTS (OXPHOS gene expression; [4]) was −1.000. It also gave an MTT [1, 6] of 0.254, an MTT [1, 4] of −0.771 and a cyt c (cytochrome c; [6]) of 0.387. It also gave a cyt c (cytochrome c; [4]) of −0.703, a nucOX (nuOXPHOS transcripts; [6]) of 0.489 and a nucOX (nuOXPHOS transcripts; [4]) of −0.840. For the same compound, the ROS (reactive oxygen species; [6]) was 3.608, the ROS (reactive oxygen species; [4]) was 0.392 and the ΔΨm [2, 6] was −0.024. It also gave a ΔΨm [2, 4] of 0.209.

With CO[C@H]1[C@H](O)[C@H](O[C@H]2CC[C@@]3(C=O)[C@H](CC[C@@H]4[C@@H]3CC[C@]3(C)[C@@H](C5=CC(=O)OC5)CC[C@]43O)C2)O[C@@H](C)[C@@H]1O [peruvoside] the mitoOX (mtOXPHOS transcripts; [7]) was 0.324, the Viability (C2C12 myotubes; [7]) was 0.426 and the GE-HTS (OXPHOS gene expression; [7]) was 0.328. The MTT [1, 7] was −1.190, the cyt c (cytochrome c; [7]) was 0.075 and the nucOX (nuOXPHOS transcripts; [7]) was 0.297. The ROS (reactive oxygen species; [7]) was 0.997 and the ΔΨm [2, 7] was −0.906.

In the case of CC(C)=CCc1c(O)cc2oc(C)cc(=O)c2c1O [peucenin], the mitoOX (mtOXPHOS transcripts; [8]) is reported as 0.361, the Viability (C2C12 myotubes; [8]) is reported as −0.906 and the GE-HTS (OXPHOS gene expression; [8]) is reported as 0.148. It also gave an MTT [1, 8] of −1.695, a cyt c (cytochrome c; [8]) of 0.494 and a nucOX (nuOXPHOS transcripts; [8]) of 0.051. For the same compound, the ROS (reactive oxygen species; [8]) was −0.014 and the ΔΨm [2, 8] was −0.057.

In the case of CCOc1ccc(NC(C)=O)cc1 [phenacetin], the mitoOX (mtOXPHOS transcripts; [7]) is reported as 0.564, the Viability (C2C12 myotubes; [7]) is reported as 0.665 and the GE-HTS (OXPHOS gene expression; [7]) is reported as 0.811. For the same compound, the MTT [1, 7] was 0.760, the cyt c (cytochrome c) was −0.611 and the cyt c (cytochrome c; [7]) was 0.005. The nucOX (nuOXPHOS transcripts; [7]) was 0.833, the ROS (reactive oxygen species; [7]) was 1.491 and the ΔΨm [2, 7] was −0.255.

For Nc1ccc(/N=N/c2ccccc2)c(N)n1 [phenazopyridine], the mitoOX (mtOXPHOS transcripts; [9]) was −0.930, the mitoOX (mtOXPHOS transcripts; [5]) was 0.544 and the Viability (C2C12 myotubes; [9]) was −0.413. The Viability (C2C12 myotubes; [5]) was 0.627, the GE-HTS (OXPHOS gene expression; [9]) was −0.561 and the GE-HTS (OXPHOS gene expression; [5]) was 0.362. The MTT [1, 9] was −2.094, the MTT [1, 5] was −0.692 and the cyt c (cytochrome c; [9]) was 0.678. The cyt c (cytochrome c; [5]) was 0.335, the nucOX (nuOXPHOS transcripts; [9]) was −0.323 and the nucOX (nuOXPHOS transcripts; [5]) was 0.207. The ROS (reactive oxygen species; [9]) was 0.587, the ROS (reactive oxygen species; [5]) was 1.911 and the ΔΨm [2, 9] was 0.126. For the same compound, the ΔΨm [2, 5] was 1.263.

CC(COc1ccccc1)N(CCCl)Cc1ccccc1 (stereo not shown) [phenoxybenzamine] was tested, and the mitoOX (mtOXPHOS transcripts; [10]) was 0.167, the mitoOX (mtOXPHOS transcripts; [5]) was −1.462 and the Viability (C2C12 myotubes; [10]) was −0.751. It also gave a Viability (C2C12 myotubes; [5]) of −0.906, a GE-HTS (OXPHOS gene expression; [10]) of −0.155 and a GE-HTS (OXPHOS gene expression; [5]) of −1.302. It also gave an MTT [1, 10] of −0.159, an MTT [1, 5] of −1.049 and a cyt c (cytochrome c; [10]) of −0.470. It also gave a cyt c (cytochrome c; [5]) of −0.188, a nucOX (nuOXPHOS transcripts; [10]) of −0.306 and a nucOX (nuOXPHOS transcripts; [5]) of −1.077. The ROS (reactive oxygen species; [10]) was 0.444, the ROS (reactive oxygen species; [5]) was 0.256 and the ΔΨm [2, 10] was −0.422. The ΔΨm [2, 5] was 0.021.

CNC[C@H](O)c1cccc(O)c1 [phenylephrine] showed a mitoOX (mtOXPHOS transcripts) of 0.536, a Viability (C2C12 myotubes) of −0.349 and a GE-HTS (OXPHOS gene expression) of 0.254. For the same compound, the MTT [1] was 1.105, the cyt c (cytochrome c) was −0.187 and the nucOX (nuOXPHOS transcripts) was 0.120. It also gave an ROS (reactive oxygen species) of 0.474 and a ΔΨm [2] of −0.460.
